Experimental data as given in patent publication US20250270206A1, “COMPOSITIONS AND METHODS FOR INHIBITION OF RAS” (TheRas, Inc., priority 2022, published 2025).

Experiments:
[1] = target: T1, GppNHp-loaded KRAS4b (amino acids 1-169) G12C/C118S (Homo sapiens, UniProt P01116, C118S/G12C); test: MALDI-TOF MS covalent Cys12 modification, GppNHp-loaded KRAS G12C; assay type: binding; settings: 15 minutes reaction time, 1 μM protein, 1:2.5 protein to compound ratio
T1 construct: KRAS4b (amino acids 1-169) G12C/C118S protein; made in house
Summary of the method: (§1)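 1 μM KRAS4b(1-169) G12C/C118S loaded with GTP, GppNHp or GDP in 20 mM HEPES, 150 mM NaCl, 1 mM MgCl2, pH 7.3, treated at a 1:2.5 protein:compound ratio in the dark at room temperature. Linear-mode MALDI-TOF; percent modification = adduct peak height over total protein peak heights, at 15 min.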

[2] = target: T2, GDP-loaded KRAS4b (amino acids 1-169) G12C/C118S (Homo sapiens, UniProt P01116, C118S/G12C); test: MALDI-TOF MS covalent Cys12 modification, GDP-loaded KRAS G12C; assay type: binding; settings: 15 minutes reaction time, 1 μM protein, 1:2.5 protein to compound ratio
T2 construct: KRAS4b (amino acids 1-169) G12C/C118S protein; made in house
Summary of the method: as §1

[3] = target: T3, Avi-KRAS G12C (1-169) GppNHp/RAF1 RBD-3×FLAG (52-151) (Homo sapiens, UniProt P01116, G12C); test: KRAS G12C-effector (RAF1 RBD) protein:protein interaction HTRF disruption assay; assay type: biochemical; settings: PPI HTRF
T3 construct: Avi-KRAS G12C (1-169) GppNHp
Summary of the method: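 TR-FRET disruption read-out (excitation 320 nm, emission 615 nm), expressed relative to DMSO set at 100% activity, over a 3-fold compound series of 30-0.02 μM. Tris pH 7.5 buffer with 5 mM MgCl2, 0.1% BSA and 10% DMSO. GppNHp-bound KRAS G12C (50 nM), then RAF1 RBD (75 nM), then detection reagents, each incubated 1 h at RT.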

pERK in NCI-H358 cells = test: Cell-based pERK HTRF assay; settings: Homo sapiens, 0.5 h, 30 min incubation
Summary of the method: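 KRAS G12C NCI-H358 cells in RPMI/10% FBS treated 30 min with compound, 9-point 3-fold series from 75 μM final top, 0.25% DMSO. Lysates read for phospho-ERK by HTRF (d2/Eu cryptate antibodies, 615 nm emission) after 4–24 h room-temperature incubation.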

[4] = target: T4, GTP-loaded KRAS4b (amino acids 1-169) G12C/C118S (Homo sapiens, UniProt P01116, C118S/G12C); test: MALDI-TOF MS covalent Cys12 modification, GTP-loaded KRAS G12C; assay type: binding; settings: 15 minutes reaction time, 1 μM protein, 1:2.5 protein to compound ratio
T4 construct: KRAS4b (amino acids 1-169) G12C/C118S protein; made in house
Summary of the method: as §1

Structure (SMILES) | GppNHp-KRAS G12C percent of modification [1] | GDP-KRAS G12C percent of modification [2] | IC50 [3] [nM] | IC50 (pERK in NCI-H358 cells) [nM] | GTP-KRAS G12C percent of modification [4]
C=CC(=O)N1CC[C@@H](N(C)c2nc(OC[C@@]34CCCN3C[C@H](F)C4)nc3c(F)c(-c4ccc(F)c5sc(N)c(C#N)c45)ncc23)[C@@H]1C [Compound 52] | A (percent of modification ≥70%) | A (percent of modification ≥70%) | ≤ 500 | ≤ 100 | B (50% percent of modification <70%)
C=CC(=O)N1CC[C@@H](N(C)c2nc(OC[C@@]34CCCN3C[C@H](F)C4)nc3c(Cl)c(-c4ccc(F)c5sc(N)c(C#N)c45)ncc23)[C@@H]1C [Compound 53] | A (percent of modification ≥70%) | A (percent of modification ≥70%) | ≤ 500 | ≤ 100 | B (50% percent of modification <70%)
